# “Also recorded” adds a separate entry of the source. Ends that are not written are not given here.
# Test system: bleomycin induced lung fibrosis
# Experiment: Bleomycin (BLM) induced lung fibrosis
# Type: in vivo, C57BL/6 mice
# Settings: for cell recruitment in bronchoalveolar lavage space: 3 times in 10 days
# Description: In order to determine the activity of the exemplary all-D retro-inverso IB(s) peptide XG-102 (SEQ ID NO: 233) in the treatment of Chronic Obstructive Pulmonary Disease (COPD) XG-102 (SEQ ID NO: 233) is used in an animal model of Bleomycin induced acute lung inflammation and fibrosis. The protocol of bleomycin induced inflammation and fibrosis has been described before in the literature. The aim of the Experiment was to investigate the effect of XG-102 (SEQ ID NO: 233) by subcutaneous (s.c.) route on neutrophil recruitment in broncho alveolar lavage (BAL) and lung in bleomycin induced inflammation and fibrosis: • at 1 day after a single bleomycin administration (10 mg/kg) • and at day 10 with the development of fibrosis
# 1) Method and Experimental Approach • The test compound XG-102 (SEQ ID NO: 233) at two doses and vehicle control were given s.c. with a single intranasal administration of bleomycin and mice were analyzed after 1 and 10 days. The animals used in the model were 10 C57BL/6 mice (8 weeks old) per group. The experimental groups included vehicle, 0.001 mg/kg XG-102 (SEQ ID NO: 233) and 0.1 mg/kg XG-102 (SEQ ID NO: 233), and the treatment consisted of repeated sub-cutaneous administration of XG-102 (SEQ ID NO: 233), prior to bleomycin administration then every 3 days. Acute lung inflammation at 24 h was monitored by BAL lavage, cytology, cell counts, and lung myeloperoxidase activity. The effect of the compound was compared with vehicle controls. Lung fibrosis was assessed histologically using hematoxylin and eosin staining at day 10 after the single dose of bleomycin.
# 1.1) Bleomycin Administration • Bleomycin sulfate in saline (10 mg/kg body weight) from Bellon Laboratories (Montrouge, France) or saline were given through the airways by nasal instillation in a volume of 40 μL under light ketamine-xylasine anesthesia. […]
# 1.4) Cell Count and Determination • Total cell count was determined in BAL fluid using a Malassez hemocytometer. […]
substance,measurement,setting,value
dqsrpvqpflnIttprkprpprrrqrrkkrg (DQSRPVQPFLNLTTPRKPRPPRRRQRRKKRG; not fully specified (some residues); printed as dqsrpvqpflnIttprkprpprrrqrrkkrg) [XG-102],cell recruitment in bronchoalveolar lavage space,0.001 mg/kg s.c.,reduced significantly the lymphocyte recruitment and the number of total cells recruited; also recorded: decreases the Bleomycin-induced later inflammation
same,"histology: inflammatory cells accumulation, fibrotic areas, loss of lung architecture","0.001 mg/kg, day 10",A decrease of these parameters was observed; also recorded: attenuates the Bleomycin-induced fibrosis
same,cell recruitment in bronchoalveolar lavage space,0.1 mg/kg s.c.,had no effect

# Source: patent US10023615B2, “Efficient transport into white blood cells” (priority 2008, dated 2018)
